Values of other authors in patent publication US9857359B2, “Methods for determining drug efficacy using cereblon-associated proteins” (CELGENE CORPORATION, priority 2012, dated 2018).

Molecular target: CRBN (Homo sapiens, UniProt Q96SW2)
Conditions: in vitro; Ito et al., Science 2010; cited from earlier work

Sequence of CRBN (Q96SW2 whole entry): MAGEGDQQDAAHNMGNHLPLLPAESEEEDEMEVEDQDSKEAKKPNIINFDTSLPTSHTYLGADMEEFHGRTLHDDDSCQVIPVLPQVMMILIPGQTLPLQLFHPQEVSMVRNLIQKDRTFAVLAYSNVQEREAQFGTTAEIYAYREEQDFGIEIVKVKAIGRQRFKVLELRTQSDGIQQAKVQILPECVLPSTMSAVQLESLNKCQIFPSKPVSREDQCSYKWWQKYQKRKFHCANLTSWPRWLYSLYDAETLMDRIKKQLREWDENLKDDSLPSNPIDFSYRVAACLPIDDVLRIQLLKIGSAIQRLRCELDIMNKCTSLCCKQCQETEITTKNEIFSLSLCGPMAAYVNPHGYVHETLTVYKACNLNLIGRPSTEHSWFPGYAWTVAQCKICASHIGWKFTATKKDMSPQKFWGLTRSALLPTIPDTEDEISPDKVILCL
Sequence of CRBN (Q16531 whole entry partner): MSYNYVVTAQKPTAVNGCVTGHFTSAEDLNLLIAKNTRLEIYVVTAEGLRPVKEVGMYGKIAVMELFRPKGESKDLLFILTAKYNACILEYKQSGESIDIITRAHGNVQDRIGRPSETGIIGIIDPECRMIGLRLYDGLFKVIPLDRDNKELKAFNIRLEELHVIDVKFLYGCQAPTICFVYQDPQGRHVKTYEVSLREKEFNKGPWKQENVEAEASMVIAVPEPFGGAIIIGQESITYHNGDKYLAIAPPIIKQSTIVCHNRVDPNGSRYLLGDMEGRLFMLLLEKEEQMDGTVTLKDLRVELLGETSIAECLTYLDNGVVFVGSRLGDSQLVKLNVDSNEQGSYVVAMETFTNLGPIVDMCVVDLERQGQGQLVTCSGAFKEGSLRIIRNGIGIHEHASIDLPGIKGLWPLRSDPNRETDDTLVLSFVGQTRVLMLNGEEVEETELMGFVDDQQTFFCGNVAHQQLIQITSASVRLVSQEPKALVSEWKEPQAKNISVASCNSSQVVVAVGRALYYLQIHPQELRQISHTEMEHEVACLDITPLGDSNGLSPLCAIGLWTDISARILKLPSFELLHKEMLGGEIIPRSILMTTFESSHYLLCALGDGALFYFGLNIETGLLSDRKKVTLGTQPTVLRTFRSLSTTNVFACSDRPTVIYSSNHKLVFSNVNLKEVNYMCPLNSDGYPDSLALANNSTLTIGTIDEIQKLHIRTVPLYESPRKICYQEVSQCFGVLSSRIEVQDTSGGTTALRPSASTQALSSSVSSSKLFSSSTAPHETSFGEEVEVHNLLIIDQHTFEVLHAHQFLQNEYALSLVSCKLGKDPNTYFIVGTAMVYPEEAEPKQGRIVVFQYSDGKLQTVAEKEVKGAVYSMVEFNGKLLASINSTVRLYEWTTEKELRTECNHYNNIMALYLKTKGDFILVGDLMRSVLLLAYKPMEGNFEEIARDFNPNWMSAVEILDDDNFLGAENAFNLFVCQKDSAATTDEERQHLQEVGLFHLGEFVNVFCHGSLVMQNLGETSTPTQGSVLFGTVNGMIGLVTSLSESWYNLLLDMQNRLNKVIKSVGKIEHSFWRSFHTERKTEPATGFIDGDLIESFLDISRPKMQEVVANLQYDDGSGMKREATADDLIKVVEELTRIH
Sequence of CRBN (Q13619 whole entry partner): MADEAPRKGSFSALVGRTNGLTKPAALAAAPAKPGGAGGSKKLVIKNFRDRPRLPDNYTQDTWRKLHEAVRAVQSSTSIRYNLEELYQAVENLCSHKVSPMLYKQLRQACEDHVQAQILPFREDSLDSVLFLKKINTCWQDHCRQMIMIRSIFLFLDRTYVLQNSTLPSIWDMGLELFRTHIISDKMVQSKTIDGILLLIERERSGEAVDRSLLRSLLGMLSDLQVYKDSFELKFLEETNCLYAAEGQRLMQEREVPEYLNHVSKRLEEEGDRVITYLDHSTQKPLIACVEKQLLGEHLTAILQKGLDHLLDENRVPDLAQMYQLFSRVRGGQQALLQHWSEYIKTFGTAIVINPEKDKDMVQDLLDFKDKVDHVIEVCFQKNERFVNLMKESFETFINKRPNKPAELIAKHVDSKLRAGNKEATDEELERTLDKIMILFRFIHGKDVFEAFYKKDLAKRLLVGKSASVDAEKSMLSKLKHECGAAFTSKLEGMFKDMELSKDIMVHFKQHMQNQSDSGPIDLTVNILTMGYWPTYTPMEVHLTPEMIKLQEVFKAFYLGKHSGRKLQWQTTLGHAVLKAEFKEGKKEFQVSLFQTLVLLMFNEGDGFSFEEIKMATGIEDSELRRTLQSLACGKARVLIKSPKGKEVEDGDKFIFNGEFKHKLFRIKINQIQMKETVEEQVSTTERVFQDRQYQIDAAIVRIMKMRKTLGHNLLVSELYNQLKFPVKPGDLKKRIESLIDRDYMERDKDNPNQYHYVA
Sequence of CRBN (P62877 whole entry partner): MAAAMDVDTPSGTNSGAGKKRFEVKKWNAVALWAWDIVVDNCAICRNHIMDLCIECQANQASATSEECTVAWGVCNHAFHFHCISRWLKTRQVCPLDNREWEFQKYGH

O=C1CCC(N2C(=O)c3ccccc3C2=O)C(=O)N1 (stereo not shown) [thalidomide]
Auto-ubiquitination of CRBN: inhibit auto-ubiquitination of CRBN in vitro
